Assay results taken from patent publication US5990136A, “Isoxazoline derivatives useful as antimicrobials” (Pharmacia & Upjohn Company, priority 1997, dated 1999).
Converted amounts (≈) assume the structure as drawn.

Legend:
[1] = test system: Staphylococcus aureus UC ® No. 9213; assay: In vitro antimicrobial activity (MIC, agar dilution, Mueller Hinton agar), S. aureus UC 9213; format: cell-based; conditions: UC9213, 35° C., 18 hours, read-out: Minimum inhibitory concentration (MIC), S. a. 9213
Procedure: (§1) Antimicrobial activity was tested in vitro using the procedure described in National Committee for Clinical Laboratory Standards. Methods for dilution antimicrobial susceptibility tests for bacteria that grow aerobically are disclosed in the third edition of Approved Standard, NCCLS Document M7-A3, Villanova, Pa., 1993. Minimum inhibitory concentration (MIC) values were determined by an agar dilution method (1) in which the test medium was Mueller Hinton agar (MHA; Difco Laboratories, Detroit, Mich.) supplemented with 1% Supplement C (Difco). Serial two-fold dilutions of each compound were prepared using 1.0 ml volumes of sterile distilled water. To each 1.0 ml aliquot was added 9.0 ml of molten agar medium. The drug-supplemented agar was mixed, poured into 15×100 mm petri dishes, and allowed to solidify and dry at room temperature prior to inoculation. The test cultures were grown aerobically overnight at 35° C. on MHA; streptococcal strains were grown on Trypticase Soy Blood Agar Base EH (Difco) supplemented with 5% defibrinated sheep blood (BBL, Becton Dickinson Company, Cockeysville, Md.). Colonies were harvested with a sterile swab, and cell suspensions were prepared in Trypticase Soy Broth (TSB; Becton Dickinson Company) to equal the turbidity of a 0.5 McFarland standard. A 1:19 dilution of the suspension was made in TSB; this diluted suspension constituted the inoculum for the assay. The plates containing the drug-supplemented agar were inoculated with a 0.001 ml drop of the cell suspensions using a Steers replicator (Melrose Machine Shop, Woodlyn, Pa.), yielding approximately 10^4 -10^5 cells per spot. The plates were incubated aerobically at 35° C. for 18 hours and the MIC was read as the lowest concentration of drug that inhibited visible growth of the organism. The growth of a single colony was considered to be negative.

[2] = test system: Streptococcus Pneumoniae UC ® No. 9912; assay: In vitro antimicrobial activity (MIC, agar dilution, Mueller Hinton agar), S. pneumoniae UC 9912; format: cell-based; conditions: UC9912, 35° C., 18 hours, read-out: Minimum inhibitory concentration (MIC), S. p. 9912
Procedure: as §1

[3] = test system: Enterococcus faecalis UC ® No. 9217; assay: In vitro antimicrobial activity (MIC, agar dilution, Mueller Hinton agar), E. faecalis UC 9217; format: cell-based; conditions: UC9217, 35° C., 18 hours, read-out: Minimum inhibitory concentration (MIC), E. f. 9217
Procedure: as §1

S, aureus UC ® No. 9213 = conditions: Antimicrob. Agents Chemother. 1996 and ICAAC 1995 posters; cited from earlier work

SMILES	MIC [1]	MIC [2]	MIC [3]	potency of U-100592 versus vancomycin in this animal model (S, aureus UC ® No. 9213)
COc1ccc(-c2ccc(C3=NOC(CNC(C)=O)C3)cc2)ccc1=O (racemic) [Example 1, N-[[4,5-Dihydro-3-[4-(4-methoxy-5-oxo-1,3,6-cycloheptatrien-1-yl)phenyl]-5-isoxazolyl]methyl]acetamide]	4 µg/mL (≈ 11.4 µM)	1 µg/mL (≈ 2.84 µM)	4 µg/mL (≈ 11.4 µM)	
CC(=O)NCC1CC(c2ccc(C3=CCN(C(=O)CO)CC3)cc2)=NO1 (stereo not shown) [Example 4, N-[[4,5-Dihydro-3-[4-[1,2,3,6-tetrahydro-1-(hydroxyacetyl)-4-pyridinyl]phenyl]-5-isoxazolyl]methyl]acetamide]	4 µg/mL (≈ 11.2 µM)	2 µg/mL (≈ 5.6 µM)	8 µg/mL (≈ 22.4 µM)	
CC(=O)NC[C@H]1CC(c2ccc(C3=CCN(C(=O)CO)CC3)cc2)=NO1 [Example 5, (R)-N-[[4,5-Dihydro-3-[4-[1,2,3,6-tetrahydro-1-(hydroxyacetyl)-4-pyridinyl]phenyl]-5-isoxazolyl]methyl]acetamide]	2 µg/mL (≈ 5.6 µM)	0.5 µg/mL (≈ 1.4 µM)	4 µg/mL (≈ 11.2 µM)	
COC(=O)N1CC=C(c2ccc(C3=NOC(CNC(C)=O)C3)cc2)CC1 (stereo not shown) [Example 6, Methyl 4-[4-[5-[(acetylamino)methyl]-4,5-dihydro-3-isoxazolyl]phenyl]-3,6-dihydro-1(2H)-pyridinecarboxylate]	16 µg/mL (≈ 44.8 µM)	4 µg/mL (≈ 11.2 µM)	16 µg/mL (≈ 44.8 µM)	
CC(=O)NCC1CC(c2ccc(C3=CCN(C(C)=O)CC3)cc2)=NO1 (stereo not shown) [Example 7, N-[[4,5-Dihydro-3-[4-[1,2,3,6-tetrahydro-1-(acetyl)-4-pyridinyl]phenyl]-5-isoxazolyl]methyl]acetamide]	8 µg/mL (≈ 23.4 µM)	2 µg/mL (≈ 5.86 µM)	16 µg/mL (≈ 46.9 µM)	
CC(=O)NC[C@H]1CC(c2ccc(-c3ccncc3)cc2)=NO1 [Example 8, (R)-N-[[4,5-Dihydro-3-[4-(4-pyridinyl)phenyl]-5-isoxazolyl]methyl]acetamide]	1 µg/mL (≈ 3.39 µM)	0.25 µg/mL (≈ 0.846 µM)	2 µg/mL (≈ 6.77 µM)	
CC(=O)NC[C@H]1CN(c2ccc(N3CCN(C(=O)CO)CC3)c(F)c2)C(=O)O1 [Example U-100592]				equipotent to vancomycin
